Results taken from USRE43802E1, “α- and β-amino acid hydroxyethylamino sulfonamides useful as retroviral protease inhibitors” (G.D. Searle LLC, priority 1992, dated 2012).
Like-named read-outs stand apart in the source and are kept apart here.

What was measured:
CEM cells = assay: Intrinsic toxicity of test compound in uninfected CEM cells (MTT); assay type: cell-based; details: Table 21
From the text: Methods, 20, 309-321 (1988).

HIV protease = biological target: T1, HIV protease (Human immunodeficiency virus type 1 group M subtype B, UniProt P04585); assay: HIV protease enzyme assay (fluorescence, substrate 2-Ile-Nle-Phe(p-NO2)-Gln-ArgNH2); assay type: biochemical; details: for IC50: HIV protease enzyme assay
T1 construct: HIV protease is diluted in the assay buffer to a final enzyme concentration of 12.3 nanomolar, based on a molecular weight of 10,780
Experimental: The enzyme method is described below. […] The positive control is MVT-101 (Miller, M. et al, Science, 246, 1149 (1989)] The assay conditions are as follows:
Assay buffer: 20 mM sodium phosphate, pH 6.4 20% glycerol 1 mM EDTA 1 mM DTT 0.1% CHAPS
The above described substrate is dissolved in DMSO, then diluted 10 fold in assay buffer. Final substrate concentration in the assay is 80 μM.
The final concentration of DMSO is 14% and the final concentration of glycerol is 18%. The test compound is dissolved in DMSO and diluted in DMSO to 10× the test concentration; 10 μl of the enzyme preparation is added, the materials mixed and then the mixture is incubated at ambient temperature for 15 minutes. The enzyme reaction is initiated by the addition of 40 μl of substrate. The increase in fluorescence is monitored at 4 time points (0, 8, 16 and 24 minutes) at ambient temperature. Each assay is carried out in duplicate wells.

HIV-1 = assay: microbe, parasite or virus in culture; details: Human immunodeficiency virus 1, CCRF-CEM, 168 h
Experimental: Assays were performed in 96-well tissue culture plates. CEM cells, a CD4^+ cell line, were grown in RPMI-1640 medium (Gibco) supplemented with a 10% fetal calf serum and were then treated with polybrene (2 μg/ml). An 80 μl volume of medium containing 1×10^4 cells was dispensed into each well of the tissue culture plate. To each well was added a 100 μl volume of test compound dissolved in tissue culture medium (or medium without test compound as a control) to achieve the desired final concentration and the cells were incubated at 37° C. for 1 hour. […] Likewise, the intrinsic toxicity of the test compound was determined by adding medium without virus to several wells containing test compound. […]
Following the addition of virus, cells were incubated at 37° C. in a humidified, 5% CO2 atmosphere for 7 days. […] The absorbance at 590 nm was determined for each sample using a Molecular Devices microplate reader. Absorbance values for each set of wells is compared to assess viral control infection, uninfected control cell response as well as test compound by cytotoxicity and antiviral efficacy.

[1] = Table 19B, read-out: IC50 (uM) or % inhib: IC50

| Compound | TD50 (nM) (CEM cells) | IC50 (HIV protease; Table 21, read-out: IC50) | further results |
| --- | --- | --- | --- |
| COc1ccc(S(=O)(=O)N(CC(C)C)C[C@@H](O)[C@H](Cc2ccccc2)NC(=O)O[C@H]2CCS(=O)(=O)C2)cc1 | – | – | melting point: 69 °C |
| COc1ccc(S(=O)(=O)N(CC(C)C)C[C@@H](O)[C@H](Cc2ccccc2)NC(=O)OC(C)(C)C)cc1 [Example 27] | 300,000 nM | 5 nM | – |
| COc1ccc(S(=O)(=O)N(CC(C)C)C[C@@H](O)[C@H](Cc2ccccc2)NC(=O)OCc2ccncc2)cc1 [Example 22] | 31,000 nM | 15 nM | – |
| COc1ccc(S(=O)(=O)N(CC(C)C)C[C@@H](O)[C@H](Cc2ccccc2)NC(=O)c2c(C)cccc2C)cc1 [Example 32] | 17,000 nM | – | IC50 (HIV protease; IC50 (nM), Table 21): 5 nM |
| COc1ccc(S(=O)(=O)N(CC(C)C)C[C@@H](O)[C@H](Cc2ccccc2)NC(=O)c2ccccc2C)cc1 [Example 29] | 196,000 nM | – | – |
| COc1ccc(S(=O)(=O)N(CC(C)C)C[C@@H](O)[C@H](Cc2ccccc2)NC(=O)OCc2ccc[n+]([O-])c2)cc1 [Example 25] | 167,000 nM | 60 nM | – |
| COc1ccc(S(=O)(=O)N(CC(C)C)C[C@@H](O)[C@H](Cc2ccccc2)NC(=O)OCc2cccnc2)cc1 [Example 17] | 59,000 nM | 4 nM | – |
| CNC(=O)C[C@H](NC(=O)c1ccc2ccccc2n1)C(=O)N[C@@H](Cc1ccccc1)[C@H](O)CN(CCC(C)C)S(=O)(=O)c1ccccc1 [Entry 7] | – | – | EC50 (HIV-1): 25 nM; IC50 (HIV protease; IC50 (nM), Table 21): 3 nM |
| COc1ccc(S(=O)(=O)N(CC(C)C)C[C@@H](O)[C@H](Cc2ccccc2)NC(=O)c2ccccc2Cl)cc1 [Example 30] | 154,000 nM | – | – |
| COc1ccc(S(=O)(=O)N(CC(C)C)C[C@@H](O)[C@H](Cc2ccccc2)NC(=O)c2ccccc2)cc1 [Example 28] | 213,000 nM | – | – |
| CCC(C)CN(C[C@@H](O)[C@H](Cc1ccccc1)NC(=O)OCc1ccccc1)S(=O)(=O)c1ccc(OC)cc1 (stereo partly drawn) [Table 1a Entry 56] | – | – | IC50 (HIV protease; [1]): 3.6 nM |
| CSC(C)(C)[C@H](NC(=O)CN(C)C)C(=O)N[C@@H](Cc1ccccc1)[C@H](O)CN(CCC(C)C)S(=O)(=O)c1ccccc1 [Table 14 Entry 3] | – | – | IC50 (HIV protease; [1]): 4.9 nM |
| CC(C)CN(C[C@@H](O)[C@H](Cc1ccccc1)NC(=O)OCc1cccnc1)S(=O)(=O)c1ccc(Cl)cc1 [Example 18] | – | 4 nM | – |
| CC(C)CCN(C[C@@H](O)[C@H](Cc1ccccc1)NC(=O)OCc1ccccc1)S(=O)(=O)c1ccc([N+](=O)[O-])cc1 [Entry 6] | – | – | IC50 (HIV protease; Table 18A, read-out: IC50): 10 nM |
| O=C(N[C@@H](Cc1ccccc1)[C@H](O)CN(C1CCCCC1)S(=O)(=O)c1ccccc1)OCc1ccccc1 [Entry 5] | – | 19 nM | IC50 (HIV protease; Table 18A, read-out: IC50): 19 nM |
| CCC(C)C(NC(=O)OCc1ccccc1)C(=O)N[C@@H](Cc1ccccc1)[C@H](O)CN(CCC(C)C)S(=O)(=O)c1ccccc1 (stereo partly drawn) [Table 3 Entry 4] | – | – | IC50 (HIV protease; [1]): 2.4 nM |
| COc1ccc(S(=O)(=O)N(CC(C)C)C[C@@H](O)[C@H](Cc2ccccc2)NC(=O)OCc2ccc(O)nc2)cc1 [Example 39] | – | 16 nM | – |
| CCCN(C[C@@H](O)[C@H](Cc1ccccc1)NC(=O)[C@H](CC(N)=O)NC(=O)OCc1ccccc1)S(=O)(=O)c1ccccc1 [Entry 7] | – | – | IC50 (HIV protease; Table 18A, read-out: IC50): 3.6 nM |
| CCC(C)[C@H](NC(=O)CN(C)C)C(=O)N[C@@H](Cc1ccccc1)[C@H](O)CN(CCC(C)C)S(=O)(=O)c1ccccc1 (stereo partly drawn) [Entry 14] | – | – | IC50 (HIV protease; IC50 (nM), Table 21): 4 nM |
| COc1ccc(S(=O)(=O)N(CC(C)C)C[C@@H](O)[C@H](Cc2ccccc2)NC(=O)OCc2cncnc2)cc1 [Example 23] | – | 2 nM | – |
| CC(C)CCN(C[C@@H](O)[C@H](Cc1ccccc1)NC(=O)C(NC(=O)CN(C)C)C(C)(C)C)S(C)(=O)=O (stereo partly drawn) [Table 3 Entry 2] | – | – | IC50 (uM) or % inhib: % inhib @ 1 uM (HIV protease; Table 19B, @ 1 uM): 38%; IC50 (uM) or % inhib: % inhib @ 1.0 uM (HIV protease; Table 19B, @ 1.0 uM (second value of the cell)): 90% |
| Cc1ccccc1C(=O)N[C@@H](Cc1ccccc1)[C@H](O)CN(CC(C)C)S(=O)(=O)c1ccc(N)cc1 [Example 62] | – | 28 nM | – |
| COc1ccc(S(=O)(=O)N(CC(C)C)CC(O)C(Cc2ccccc2)NC(=O)c2ccc(CS(C)(=O)=O)cc2)cc1 (stereo not drawn) [Table 5A Entry 22] | – | – | IC50 (uM) or % inhibition: % inhibition @ 1 μM (HIV protease; Table 20, @ 1 μM): 63% @ 1 μM |
| CC(C)CCN(C[C@@H](O)[C@H](Cc1ccccc1)NC(=O)[C@@H](NC(=O)OCc1ccccc1)C(C)(C)C)S(C)(=O)=O [Entry 11] | – | – | IC50 (HIV protease; Table 18A, read-out: IC50): 81 nM |
| CC(C)CN(C[C@@H](O)[C@H](Cc1ccccc1)NC(=O)OCc1cncs1)S(=O)(=O)c1ccc(O)cc1 [Example 57] | – | 4 nM | – |
| CC(C)CN(C[C@@H](O)[C@H](Cc1ccccc1)NC(=O)OCc1cccnc1)S(=O)(=O)c1ccccc1 [Example 16] | 62,000 nM | 9 nM | – |
| C=CS(=O)(=O)N(CC(C)C)C[C@@H](O)[C@H](Cc1ccccc1)NC(=O)OCc1ccccc1 [Table 1a Entry 55] | – | – | IC50 (HIV protease; [1]): 100 nM |
